This note sets out measurements from PubChem BioAssay (NCI).

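Assay format: 96-well plates, 48-hour exposure. GI50: concentration for 50% inhibition of growth. TGI: total growth inhibition.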

Among the test systems are CCRF-CEM leukemia; EKVX NSCLC; HCC-2998 colon; IGROV1 ovarian; OVCAR-3 ovarian; RPMI-8226 leukemia; SN12C renal; SNB-19 CNS; SNB-75 CNS; UACC-62 melanoma.
Holding throughout (test): inhibition of tumour cell growth, NCI panel, 48 h

Turning to `CC1=C(O)c2cn(C)cc2C(=O)C1=O`, the TGI in the assay on CCRF-CEM leukemia, in the assay on EKVX NSCLC, in the assay on HCC-2998 colon, in the assay with IGROV1 ovarian, in the assay on OVCAR-3 ovarian and in the assay on RPMI-8226 leukemia was over 100 µM in each case. In addition, the TGI in the assay with SN12C renal, in the assay with SNB-19 CNS, in the assay with SNB-75 CNS and in the assay on UACC-62 melanoma was over 100 µM in each case.
`CSc1ccc(-c2ccccc(=O)c2O)cc1`: the GI50 in the assay with CCRF-CEM leukemia is 0.347 µM; with EKVX NSCLC, 0.28 µM; with HCC-2998 colon it was 0.594 µM; in the assay on IGROV1 ovarian, 0.427 µM; in the assay with OVCAR-3 ovarian, 0.373 µM; with RPMI-8226 leukemia, 0.428 µM. Further, the GI50 in the assay on SN12C renal is 0.878 µM; in the assay on SNB-19 CNS, 0.57 µM; in the assay on SNB-75 CNS, 3.12 µM; in the assay with UACC-62 melanoma, 0.397 µM. The TGI in the assay on CCRF-CEM leukemia was over 100 µM; in the assay with EKVX NSCLC, 3.96 µM; in the assay on HCC-2998 colon, over 100 µM; in the assay with IGROV1 ovarian it was over 100 µM; with OVCAR-3 ovarian it was 29.7 µM; in the assay with RPMI-8226 leukemia, 26.9 µM. Moreover, the TGI in the assay with SN12C renal is 30.3 µM; in the assay on SNB-19 CNS, over 100 µM; in the assay on SNB-75 CNS, over 100 µM; with UACC-62 melanoma, 2.92 µM.
For `N.N.NCCCCCN.O=C([O-])CCl.O=C([O-])CCl.O=C([O-])CCl.O=C([O-])CCl.[Pt+4].[Pt+4]`, the GI50 in the assay with CCRF-CEM leukemia was 1.71 µM; with EKVX NSCLC, 17 µM; in the assay with HCC-2998 colon, 11.6 µM; in the assay on IGROV1 ovarian it was 18 µM; with OVCAR-3 ovarian, 17 µM; in the assay on RPMI-8226 leukemia it was 44.9 µM. Besides, the GI50 was 0.161 µM in the assay with SN12C renal, 1.94 µM in the assay with SNB-19 CNS, 0.996 µM in the assay with SNB-75 CNS and 0.406 µM in the assay with UACC-62 melanoma. In addition, the TGI in the assay with CCRF-CEM leukemia was over 100 µM; in the assay on EKVX NSCLC, 58.2 µM; in the assay with HCC-2998 colon, 28 µM; in the assay with IGROV1 ovarian, 67.3 µM; in the assay with OVCAR-3 ovarian, 49.2 µM; in the assay with RPMI-8226 leukemia it was over 100 µM. In addition, the TGI with SN12C renal was found to be 1.69 µM; in the assay with SNB-19 CNS, 17.2 µM; in the assay on SNB-75 CNS, 11.8 µM; with UACC-62 melanoma it was 53.9 µM.
As to `O=c1cc(-c2ccccc2)oc2ccc(OC/C(=N/O)c3ccccc3)cc12`, the GI50 in the assay on CCRF-CEM leukemia was 1.51 µM; in the assay on EKVX NSCLC, 3.82 µM; in the assay with HCC-2998 colon it was 11 µM; in the assay with IGROV1 ovarian, 7.62 µM; in the assay on OVCAR-3 ovarian, 1.23 µM; in the assay on RPMI-8226 leukemia it was 1.83 µM. For the same compound, the GI50 in the assay with SN12C renal is 2.79 µM; in the assay with SNB-19 CNS it was 2.34 µM; with SNB-75 CNS, 2.76 µM; in the assay on UACC-62 melanoma, 2.48 µM. For the same compound, the TGI is over 50 µM in the assay with CCRF-CEM leukemia; over 50 µM in the assay on EKVX NSCLC; over 50 µM in the assay on HCC-2998 colon; over 50 µM with IGROV1 ovarian; 3.93 µM in the assay with OVCAR-3 ovarian; over 50 µM with RPMI-8226 leukemia. Further, the TGI with SN12C renal was 33.9 µM; with SNB-19 CNS, 35.2 µM; with SNB-75 CNS, over 50 µM; in the assay with UACC-62 melanoma, over 50 µM.
Consider `CC12OOC(c3ccccc31)c1c2ccc2ccccc12` (stereo unspecified), for which the TGI came to 2.8 µM in the assay on CCRF-CEM leukemia; 18.7 µM in the assay with EKVX NSCLC; 16.2 µM with HCC-2998 colon; 3.67 µM in the assay on IGROV1 ovarian; 5.81 µM with OVCAR-3 ovarian; 6.24 µM with RPMI-8226 leukemia. The TGI amounted to 29.6 µM in the assay on SN12C renal, 30.5 µM in the assay with SNB-19 CNS, 22.5 µM in the assay on SNB-75 CNS and 21.2 µM with UACC-62 melanoma.
For the compound `COc1ccccc1NC(=O)C1=C(C)NC(C)=C(C(=O)Nc2ccccc2OC)C1C1=CC=COC1`, the TGI was 48.4 µM with CCRF-CEM leukemia; over 100 µM in the assay with EKVX NSCLC; 50.2 µM in the assay on HCC-2998 colon; over 100 µM in the assay on IGROV1 ovarian; 9.5 µM in the assay on OVCAR-3 ovarian; 50.1 µM with RPMI-8226 leukemia. The TGI in the assay on SN12C renal is over 100 µM; in the assay with SNB-19 CNS, 84.2 µM; with SNB-75 CNS, over 100 µM; with UACC-62 melanoma, 15.5 µM.
Regarding `O=C(COc1ccc(/C=C2\COc3ccccc3C2=O)cc1)Nc1nccs1`, the GI50 in the assay with CCRF-CEM leukemia was 1.61 µM; with EKVX NSCLC it was 22.4 µM; in the assay with HCC-2998 colon it was 0.828 µM; in the assay on OVCAR-3 ovarian, 2.73 µM; in the assay on RPMI-8226 leukemia, 2.25 µM; in the assay on SN12C renal, 5.69 µM. The figures for the GI50 in the assay with SNB-19 CNS, in the assay on SNB-75 CNS and in the assay with UACC-62 melanoma were 12.8 µM, 5.04 µM and 7.69 µM, respectively. Besides, the TGI in the assay on CCRF-CEM leukemia came to 6.39 µM; with EKVX NSCLC it was 76.3 µM; with HCC-2998 colon it was 3.26 µM; with OVCAR-3 ovarian, 5.81 µM; in the assay with RPMI-8226 leukemia it was 6.28 µM; with SN12C renal, 25.7 µM. Besides, the TGI came out at 25.4 µM with SNB-19 CNS, 22 µM in the assay on SNB-75 CNS and 21.1 µM with UACC-62 melanoma.
As to `COC(=O)CCC(NC(=S)N/N=C/c1ccccn1)C(=O)OC` (stereo unspecified), the TGI in the assay on CCRF-CEM leukemia, in the assay on EKVX NSCLC, with HCC-2998 colon, in the assay on IGROV1 ovarian, in the assay with OVCAR-3 ovarian and with RPMI-8226 leukemia was over 100 µM each time. Moreover, the TGI in the assay with SN12C renal, in the assay on SNB-19 CNS, with SNB-75 CNS and with UACC-62 melanoma was over 100 µM throughout.
Consider `C=C(C)C1CC/C(C)=C/CCC2(C)OC2CC/C(CO)=C\C1O` (stereo unspecified), for which the TGI with CCRF-CEM leukemia, with EKVX NSCLC, with HCC-2998 colon, with IGROV1 ovarian, with OVCAR-3 ovarian and in the assay with RPMI-8226 leukemia was over 100 µM each time. In addition, the TGI with SN12C renal, in the assay with SNB-19 CNS, with SNB-75 CNS and in the assay with UACC-62 melanoma was over 100 µM in each case.
As to `C=CCC(N[C@@H](CO)c1ccccc1)c1cn(Cc2ccccc2Cl)c(=O)n(Cc2ccccc2Cl)c1=O` (stereo partly specified), the GI50 in the assay with CCRF-CEM leukemia is over 100 µM; with EKVX NSCLC, over 100 µM; in the assay on HCC-2998 colon, over 100 µM; with OVCAR-3 ovarian, over 100 µM; in the assay on RPMI-8226 leukemia, 55.8 µM; with SN12C renal it was over 100 µM. The GI50 in the assay with SNB-19 CNS is over 100 µM; in the assay with SNB-75 CNS, 79.3 µM; in the assay on UACC-62 melanoma it was 82.2 µM. Also, the TGI with CCRF-CEM leukemia, in the assay with EKVX NSCLC, in the assay on HCC-2998 colon, in the assay with OVCAR-3 ovarian, in the assay with RPMI-8226 leukemia and in the assay with SN12C renal was over 100 µM in each case. The TGI in the assay on SNB-19 CNS, with SNB-75 CNS and with UACC-62 melanoma was over 100 µM in each case.
